Activity calls are given as the source filed them. The rule behind the calls is not given here.
System: CCRIS mutagenicity, Ames/micronucleus/aberration tests
Test: CCRIS mutagenicity studies

Measured: mutagenic call

COc1cc([N+](=O)[O-])ccc1N=NC(C(C)=O)C(=O)Nc1ccccc1OC (stereo not given)
inactive: Test System: AMES SALMONELLA TYPHIMURIUM, Strain/Indicator: TA97, Metabolic Activation: HAMSTER, LIVER, S-9, AROCLOR 1254 (10%), Method: PREINCUBATION inactive; negative | Test System: AMES SALMONELLA TYPHIMURIUM, Strain/Indicator: TA97, Metabolic Activation: HAMSTER, LIVER, S-9, AROCLOR 1254 (30%), Method: PREINCUBATION inactive; negative | Test System: AMES SALMONELLA TYPHIMURIUM, Strain/Indicator: TA97, Metabolic Activation: NONE, Method: PREINCUBATION inactive; negative | Test System: AMES SALMONELLA TYPHIMURIUM, Strain/Indicator: TA97, Metabolic Activation: RAT, LIVER, S-9, AROCLOR 1254 (10%), Method: PREINCUBATION inactive; negative | Test System: AMES SALMONELLA TYPHIMURIUM, Strain/Indicator: TA97, Metabolic Activation: RAT, LIVER, S-9, AROCLOR 1254 (30%), Method: PREINCUBATION inactive; negative | Test System: AMES SALMONELLA TYPHIMURIUM, Strain/Indicator: TA98, Metabolic Activation: HAMSTER, LIVER, S-9, AROCLOR 1254 (10%), Method: PREINCUBATION inactive; negative | Test System: AMES SALMONELLA TYPHIMURIUM, Strain/Indicator: TA98, Metabolic Activation: HAMSTER, LIVER, S-9, AROCLOR 1254 (30%), Method: PREINCUBATION inactive; negative | Test System: AMES SALMONELLA TYPHIMURIUM, Strain/Indicator: TA98, Metabolic Activation: HAMSTER, LIVER, S-9, AROCLOR 1254, Method: STANDARD PLATE inactive; negative | Test System: AMES SALMONELLA TYPHIMURIUM, Strain/Indicator: TA98, Metabolic Activation: NONE, Method: PREINCUBATION inactive; negative | Test System: AMES SALMONELLA TYPHIMURIUM, Strain/Indicator: TA98, Metabolic Activation: NONE, Method: STANDARD PLATE inactive; negative | Test System: AMES SALMONELLA TYPHIMURIUM, Strain/Indicator: TA98, Metabolic Activation: RAT, LIVER, S-9, AROCLOR 1254 (10%), Method: PREINCUBATION inactive; negative | Test System: AMES SALMONELLA TYPHIMURIUM, Strain/Indicator: TA98, Metabolic Activation: RAT, LIVER, S-9, AROCLOR 1254 (30%), Method: PREINCUBATION inactive; negative | Test System: AMES SALMONELLA TYPHIMURIUM, Strain/Indicator: TA98, Metabolic Activation: RAT, LIVER, S-9, AROCLOR 1254, Method: STANDARD PLATE inactive; negative | Test System: AMES SALMONELLA TYPHIMURIUM, Strain/Indicator: TA100, Metabolic Activation: HAMSTER, LIVER, S-9, AROCLOR 1254 (10%), Method: PREINCUBATION inactive; negative | Test System: AMES SALMONELLA TYPHIMURIUM, Strain/Indicator: TA100, Metabolic Activation: HAMSTER, LIVER, S-9, AROCLOR 1254 (30%), Method: PREINCUBATION inactive; negative | Test System: AMES SALMONELLA TYPHIMURIUM, Strain/Indicator: TA100, Metabolic Activation: HAMSTER, LIVER, S-9, AROCLOR 1254, Method: STANDARD PLATE inactive; negative | Test System: AMES SALMONELLA TYPHIMURIUM, Strain/Indicator: TA100, Metabolic Activation: NONE, Method: PREINCUBATION inactive; negative | Test System: AMES SALMONELLA TYPHIMURIUM, Strain/Indicator: TA100, Metabolic Activation: NONE, Method: STANDARD PLATE inactive; negative | Test System: AMES SALMONELLA TYPHIMURIUM, Strain/Indicator: TA100, Metabolic Activation: RAT, LIVER, S-9, AROCLOR 1254 (10%), Method: PREINCUBATION inactive; negative | Test System: AMES SALMONELLA TYPHIMURIUM, Strain/Indicator: TA100, Metabolic Activation: RAT, LIVER, S-9, AROCLOR 1254 (30%), Method: PREINCUBATION inactive; negative | Test System: AMES SALMONELLA TYPHIMURIUM, Strain/Indicator: TA100, Metabolic Activation: RAT, LIVER, S-9, AROCLOR 1254, Method: STANDARD PLATE inactive; negative | Test System: AMES SALMONELLA TYPHIMURIUM, Strain/Indicator: TA1535, Metabolic Activation: HAMSTER, LIVER, S-9, AROCLOR 1254 (10%), Method: PREINCUBATION inactive; negative | Test System: AMES SALMONELLA TYPHIMURIUM, Strain/Indicator: TA1535, Metabolic Activation: HAMSTER, LIVER, S-9, AROCLOR 1254 (30%), Method: PREINCUBATION inactive; negative | Test System: AMES SALMONELLA TYPHIMURIUM, Strain/Indicator: TA1535, Metabolic Activation: HAMSTER, LIVER, S-9, AROCLOR 1254, Method: STANDARD PLATE inactive; negative | Test System: AMES SALMONELLA TYPHIMURIUM, Strain/Indicator: TA1535, Metabolic Activation: NONE, Method: STANDARD PLATE inactive; negative | Test System: AMES SALMONELLA TYPHIMURIUM, Strain/Indicator: TA1535, Metabolic Activation: RAT, LIVER, S-9, AROCLOR 1254 (10%), Method: PREINCUBATION inactive; negative | Test System: AMES SALMONELLA TYPHIMURIUM, Strain/Indicator: TA1535, Metabolic Activation: RAT, LIVER, S-9, AROCLOR 1254 (30%), Method: PREINCUBATION inactive; negative | Test System: AMES SALMONELLA TYPHIMURIUM, Strain/Indicator: TA1535, Metabolic Activation: RAT, LIVER, S-9, AROCLOR 1254, Method: STANDARD PLATE inactive; negative | Test System: AMES SALMONELLA TYPHIMURIUM, Strain/Indicator: TA1537, Metabolic Activation: HAMSTER, LIVER, S-9, AROCLOR 1254, Method: STANDARD PLATE inactive; negative | Test System: AMES SALMONELLA TYPHIMURIUM, Strain/Indicator: TA1537, Metabolic Activation: NONE, Method: STANDARD PLATE inactive; negative | Test System: AMES SALMONELLA TYPHIMURIUM, Strain/Indicator: TA1537, Metabolic Activation: RAT, LIVER, S-9, AROCLOR 1254, Method: STANDARD PLATE inactive; negative | Test System: AMES SALMONELLA TYPHIMURIUM, Strain/Indicator: TA1538, Metabolic Activation: HAMSTER, LIVER, S-9, AROCLOR 1254, Method: STANDARD PLATE inactive; negative | Test System: AMES SALMONELLA TYPHIMURIUM, Strain/Indicator: TA1538, Metabolic Activation: NONE, Method: STANDARD PLATE inactive; negative | Test System: AMES SALMONELLA TYPHIMURIUM, Strain/Indicator: TA1538, Metabolic Activation: RAT, LIVER, S-9, AROCLOR 1254, Method: STANDARD PLATE inactive; negative | Test System: MOUSE LYMPHOMA, Strain/Indicator: L5178Y (TK+/TK-), Metabolic Activation: NONE, Method: SUSPENSION/PLATE inactive; negative. reevaluation of results: negative | Test System: MOUSE LYMPHOMA, Strain/Indicator: L5178Y (TK+/TK-), Metabolic Activation: RAT, LIVER, S-9, AROCLOR 1254, Method: SUSPENSION/PLATE inactive; negative. reevaluation of results: negative

O=[N+]([O-])C(Br)Br
active: Test System: Ames Salmonella typhimurium, Strain/Indicator: TA100, Metabolic Activation: None, Method: Standard plate active; positive | Test System: Ames Salmonella typhimurium, Strain/Indicator: TA100, Metabolic Activation: Rat, Liver, S-9, Aroclor, Method: Standard plate active; positive
inactive: Test System: Ames Salmonella typhimurium, Strain/Indicator: RSJ100, Metabolic Activation: None, Method: Standard plate inactive; negative | Test System: Ames Salmonella typhimurium, Strain/Indicator: RSJ100, Metabolic Activation: Rat, Liver, S-9, Aroclor, Method: Standard plate inactive; negative | Test System: Ames Salmonella typhimurium, Strain/Indicator: TA98, Metabolic Activation: None, Method: Standard plate inactive; negative | Test System: Ames Salmonella typhimurium, Strain/Indicator: TA98, Metabolic Activation: Rat, Liver, S-9, Aroclor, Method: Standard plate inactive; negative | Test System: Ames Salmonella typhimurium, Strain/Indicator: TA104, Metabolic Activation: None, Method: Standard plate inactive; negative | Test System: Ames Salmonella typhimurium, Strain/Indicator: TA104, Metabolic Activation: Rat, Liver, S-9, Aroclor, Method: Standard plate inactive; negative | Test System: Ames Salmonella typhimurium, Strain/Indicator: TPT100, Metabolic Activation: None, Method: Standard plate inactive; negative
